Where a name gives a salt, the structure may show the parent alone.
Legend:
[1] = target: purified human Factor XIa (Homo sapiens (Human), UniProt P03951); assay: biochemical; type: biochemical; details: read-out: Factor XIa Ki
[2] = target: purified human plasma kallikrein (Homo sapiens (Human), UniProt P03952); assay: biochemical; type: biochemical; details: read-out: Plasma Kallikrein Ki
Sequence of purified human plasma kallikrein (P03952 whole entry, looked up): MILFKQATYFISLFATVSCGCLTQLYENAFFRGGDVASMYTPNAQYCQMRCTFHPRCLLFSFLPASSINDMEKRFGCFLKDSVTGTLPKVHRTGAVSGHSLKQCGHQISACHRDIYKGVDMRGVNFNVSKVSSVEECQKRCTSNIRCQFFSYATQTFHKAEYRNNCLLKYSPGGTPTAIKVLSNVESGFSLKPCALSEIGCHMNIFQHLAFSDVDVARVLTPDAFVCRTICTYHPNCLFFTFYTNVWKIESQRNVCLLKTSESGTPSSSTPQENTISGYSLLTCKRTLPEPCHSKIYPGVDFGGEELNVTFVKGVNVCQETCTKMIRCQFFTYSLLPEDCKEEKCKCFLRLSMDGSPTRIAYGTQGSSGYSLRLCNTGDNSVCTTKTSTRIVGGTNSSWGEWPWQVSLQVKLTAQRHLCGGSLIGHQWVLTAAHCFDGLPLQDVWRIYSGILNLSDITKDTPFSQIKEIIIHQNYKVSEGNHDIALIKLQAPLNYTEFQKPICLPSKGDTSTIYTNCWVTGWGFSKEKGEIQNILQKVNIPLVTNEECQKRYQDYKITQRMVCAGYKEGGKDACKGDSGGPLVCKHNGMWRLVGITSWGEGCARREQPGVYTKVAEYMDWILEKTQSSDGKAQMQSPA
Sequence of purified human plasma kallikrein (P03952 whole entry partner, looked up): as the sequence (P03952 whole entry, looked up) above

Sequence of purified human Factor XIa (P03951 whole entry, looked up): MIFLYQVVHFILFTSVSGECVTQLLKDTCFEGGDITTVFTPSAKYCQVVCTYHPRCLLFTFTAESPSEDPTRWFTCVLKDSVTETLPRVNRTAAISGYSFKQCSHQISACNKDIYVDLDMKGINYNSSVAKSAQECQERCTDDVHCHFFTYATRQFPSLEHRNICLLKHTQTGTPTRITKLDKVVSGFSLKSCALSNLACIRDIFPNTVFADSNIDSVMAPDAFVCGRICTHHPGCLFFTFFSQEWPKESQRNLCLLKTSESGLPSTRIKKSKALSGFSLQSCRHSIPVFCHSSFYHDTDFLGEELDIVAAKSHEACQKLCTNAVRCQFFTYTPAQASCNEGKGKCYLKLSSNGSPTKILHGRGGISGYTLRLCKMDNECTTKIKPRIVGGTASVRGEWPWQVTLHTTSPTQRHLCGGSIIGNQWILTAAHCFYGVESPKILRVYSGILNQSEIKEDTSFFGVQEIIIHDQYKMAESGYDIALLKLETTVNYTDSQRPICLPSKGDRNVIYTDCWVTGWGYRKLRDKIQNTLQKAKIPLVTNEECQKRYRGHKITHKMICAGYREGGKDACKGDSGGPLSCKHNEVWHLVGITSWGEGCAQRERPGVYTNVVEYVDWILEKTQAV
Sequence of purified human Factor XIa (P03951 whole entry partner, looked up): as the sequence (P03951 whole entry, looked up) above

Q: `COC(=O)Nc1ccc2c(c1)NC(=O)[C@H](C)CCC[C@H](N1CC(C)C(c3c(F)ccc(Cl)c3F)=CC1=O)c1cc-2ccn1` (stereo partly drawn) [Example 73, Methyl N-[(10R,14S)-14-[4-(3-chloro-2,6-difluorophenyl)-3-methyl-6-oxo-1,2,3,6-tetrahydropyridin-1-yl]-10-methyl-9-oxo-8,16-diazatricyclo[13.3.1.0^2,7]nonadeca-1(19),2(7),3,5,15,17-hexaen-5-yl]carbamate, TFA salt] was tested. Which Ki [1] did it give?
A: Its Ki is 0.88 nM.

Q: What about the Ki [2] of the same molecule?
A: The Ki was 6 nM.

Q: How did the Ki [1] turn out when `C[C@@H]1CCC[C@H](N2CCC(c3c(F)cccc3C#N)=CC2=O)c2cc(ccn2)-c2ccccc2NC1=O` [Example 50, 3-Fluoro-2-{1-[(10R,14S)-10-methyl-9-oxo-8,16-diazatricyclo[13.3.1.0^2,7]nonadeca-1(19),2,4,6,15,17-hexaen-14-yl]-6-oxo-1,2,3,6-tetrahydropyridin-4-yl}benzonitrile, TFA salt] was run?
A: Its Ki is 102 nM.

Q: And the Ki [2]?
A: Its Ki is 130 nM.

Q: Which results are given for `C[C@@H]1CCC[C@H](N2CCC(c3c(F)ccc(Cl)c3F)=CC2=O)c2cc(ccn2)-c2c(ccc(F)c2F)NC1=O` [Example 203, (10R,14S)-14-[4-(3-chloro-2,6-difluorophenyl)-6-oxo-1,2,3,6-tetrahydropyridin-1-yl]-3,4-difluoro-10-methyl-8,16-diazatricyclo[13.3.1.0^2,7]nonadeca-1(19),2(7),3,5,15,17-hexaen-9-one, TFA salt]?
A: Ki [1]: 19.4 nM; Ki [2]: 44 nM

Q: With `C[C@@H]1CCC[C@H](N2CCC(c3c(F)ccc(Cl)c3F)=CC2=O)c2cc(ccn2)-c2cc(CO)ccc2NC1=O` [Example 148, (10R,14S)-14-[4-(3-chloro-2,6-difluorophenyl)-6-oxo-1,2,3,6-tetrahydropyridin-1-yl]-4-(hydroxymethyl)-10-methyl-8,16-diazatricyclo[13.3.1.0^2,7]nonadeca-1(19),2(7),3,5,15,17-hexaen-9-one] as the molecule, how does the Ki [1] read?
A: Its Ki is 90.1 nM.

Q: What about the Ki [2] of the same molecule?
A: The Ki was 118 nM.

Q: What does the source list for `C[C@@H]1CCC[C@H](N2CCC(c3c(F)ccc(Cl)c3F)=CC2=O)c2cc(ccn2)-c2ccc(Nc3ccccn3)cc2NC1=O` [Example 88, (10R,14S)-14-[4-(3-Chloro-2,6-difluorophenyl)-6-oxo-1,2,3,6-tetrahydropyridin-1-yl]-10-methyl-5-[(pyridin-2-yl)amino]-8,16-diazatricyclo[13.3.1.0^2,7]nonadeca-1(19),2(7),3,5,15,17-hexaen-9-one, 2TFA salt]?
A: Ki [1]: 1.04 nM; Ki [2]: 5 nM

Q: What does the source list for `COC(=O)Nc1cc2c(cc1I)-c1ccnc(c1)[C@@H](N1CCC(c3c(F)ccc(Cl)c3F)=CC1=O)CCC[C@@H](C)C(=O)N2` [Example 62, Methyl N-[(10R,14S)-14-[4-(3-chloro-2,6-difluorophenyl)-6-oxo-1,2,3,6-tetrahydropyridin-1-yl]-4-iodo-10-methyl-9-oxo-8,16-diazatricyclo[13.3.1.0^2,7]nonadeca-1(19),2,4,6,15,17-hexaen-5-yl]carbamate, TFA salt]?
A: Ki [1]: 196 nM; Ki [2]: 1100 nM

Q: How did the Ki [1] turn out when `COC(=O)Nc1ccc2c(c1)NC(=O)[C@H](C)CCC[C@H](N1CCC(c3cncc(Cl)c3)=CC1=O)c1cc-2ccn1` [Example 99, Methyl N-[(10R,14S)-14-[4-(5-chloropyridin-3-yl)-6-oxo-1,2,3,6-tetrahydropyridin-1-yl]-10-methyl-9-oxo-8,16-diazatricyclo[13.3.1.0^2,7]nonadeca-1(19),2,4,6,15,17-hexaen-5-yl]carbamate, his TFA salt] was run?
A: The Ki was 126 nM.

Q: What about the Ki [2] of the same molecule?
A: Its Ki is 2400 nM.

Q: Which results are given for `Cc1nnc(Nc2ccc3c(c2)NC(=O)[C@H](C)CCC[C@H](N2CCC(c4c(F)ccc(Cl)c4F)=CC2=O)c2ccnc-3c2)o1` [Example 37, (10R,14S)-14-[4-(3-Chloro-2,6-difluorophenyl)-6-oxo-1,2,3,6-tetrahydropyridin-1-yl]-10-methyl-5-[(5-methyl-1,3,4-oxadiazol-2-yl)amino]-8,18-diazatricyclo[13.3.1.0^2,7]nonadeca-1(19),2(7),3,5,15,17-hexaen-9-one, TFA salt]?
A: Ki [1]: 0.87 nM; Ki [2]: 1 nM

Q: Which Ki [1] does the source give for `C[C@@H]1CCC[C@H](N2CCC(c3c(F)ccc(Cl)c3F)=CC2=O)c2cc(ccn2)-c2cn[nH]c2NC1=O` [Example 221, 13-[4-(3-chloro-2,6-difluorophenyl)-6-oxo-1,2,3,6-tetrahydropyridin-1-yl]-9-methyl-4,5,7,15-tetraazatricyclo[12.3.1.0^2,6]octadeca-1(18),2(6),3,14,16-pentaen-8-one, 2TFA salt] here?
A: The Ki was greater than 417 nM.

Q: What about the Ki [2] of the same molecule?
A: Its Ki is 1320 nM.

Q: Which Ki [1] does the source give for `C[C@@H]1CCC[C@H](N2CCC(c3c(F)ccc(Cl)c3F)=CC2=O)c2cc(ccn2)-c2cc3c(cc2NC1=O)NC(=O)C3` [Example 84, (13R,17S)-17-[4-(3-Chloro-2,6-difluorophenyl)-6-oxo-1,2,3,6-tetrahydropyridin-1-yl]-13-methyl-7,11,19-triazatetracyclo[16.3.1.0^2,10.0^4,8]docosa-1(22),2,4(8),9,18,20-hexaene-6,12-dione, TFA salt] here?
A: The Ki was 2.68 nM.

Q: What about the Ki [2] of the same molecule?
A: The Ki was 16 nM.

Q: For `COC(=O)Nc1ccc2c(c1)NC(=O)[C@H](C)CCC[C@H](n1ncc(-c3c(C#N)ccc(Cl)c3F)cc1=O)c1cc-2ccn1` [Example 79, Methyl N-[(10R,14S)-14-[4-(3-chloro-6-cyano-2-fluorophenyl)-6-oxo-1,6-dihydropyridazin-1-yl]-10-methyl-9-oxo-8,16-diazatricyclo[13.3.1.0^2,7]nonadeca-1(19),2(7),3,5,15,17-hexaen-5-yl]carbamate, TFA salt], which Ki [1] is on record?
A: Its Ki is 0.55 nM.

Q: What about the Ki [2] of the same molecule?
A: The Ki was 3 nM.

Q: `COCc1nnc(Nc2ccc3c(c2)NC(=O)[C@H](C)CCC[C@H](N2CCC(c4c(F)ccc(Cl)c4F)=CC2=O)c2cc-3ccn2)o1` [Example 41, (10R,14S)-14-[4-(3-Chloro-2,6-difluorophenyl)-6-oxo-1,2,3,6-tetrahydropyridin-1-yl]-5-{[5-(methoxymethyl)-1,3,4-oxadiazol-2-yl]amino}-10-methyl-8,16-diazatricyclo[13.3.1.0^2,7]nonadeca-1(19),2,4,6,15,17-hexaen-9-one, TFA salt] was tested. Which Ki [1] did it give?
A: The Ki was 0.69 nM.

Q: What about the Ki [2] of the same molecule?
A: Its Ki is 2 nM.

Q: For `CC(=O)Nc1ccc(Cl)c(F)c1C1=CC(=O)N([C@H]2CCC[C@@H](C)C(=O)Nc3ccccc3-c3ccnc2c3)CC1` [Example 183, N-(4-chloro-3-fluoro-2-{1-[(10R,14S)-10-methyl-9-oxo-8,16-diazatricyclo[13.3.1.0^2,7]nonadeca-1(19),2(7),3,5,15,17-hexaen-14-yl]-6-oxo-1,2,3,6-tetrahydropyridin-4-yl}phenyl)acetamide], which Ki [1] is on record?
A: Its Ki is 75.1 nM.

Q: What about the Ki [2] of the same molecule?
A: Its Ki is 297 nM.

Q: Which results are given for `C[C@@H]1CCC[C@H](N2CCC(c3c(F)ccc(Cl)c3F)=CC2=O)c2cc(ccn2)-c2cc3c(cc2NC1=O)NC(=O)CC3` [Example 86, (14R,18S)-18-[4-(3-Chloro-2,6-difluorophenyl)-6-oxo-1,2,3,6-tetrahydropyridin-1-yl]-14-methyl-8,12,20-triazatetracyclo[17.3.1.0^2,11.0^4,9]tricosa-1(23),2(11),3,9,19,21-hexaene-7,13-dione, TFA salt]?
A: Ki [1]: 0.72 nM; Ki [2]: 1 nM

Q: With `C[C@@H]1CCC[C@H](N2CCC(c3c(F)ccc(Cl)c3F)=CC2=O)c2cc(ccn2)-c2ccc(NC(=O)OCCO)cc2NC1=O` [Example 54, 2-Hydroxyethyl N-[(10R,14S)-14-[4-(3-chloro-2,6-difluorophenyl)-6-oxo-1,2,3,6-tetrahydropyridin-1-yl]-10-methyl-9-oxo-8,16-diazatricyclo[13.3.1.0^2,7]nonadeca-1(19),2,4,6,15,17-hexaen-5-yl]carbamate, TFA salt] as the molecule, how does the Ki [1] read?
A: The Ki was 0.08 nM.

Q: What about the Ki [2] of the same molecule?
A: The Ki was 1 nM.

— patent US9409908B2 (priority 2012, dated 2016)
